Here are results for ten molecules from patent US20250283074A1, “CLUSTERIN OVEREXPRESSION IN ALZHEIMER’S DISEASE” (University of Virginia Patent Foundation, priority 2021, published 2025).

“Also recorded” adds a separate entry of the source.

The subject of data set [1] is clusterin expression in the corpus callosum. Nature of the data set: Cuprizone model of demyelination, clusterin immunofluorescence in the corpus callosum. The class given is in vivo. To be noted: 5 weeks cuprizone diet then 1 week normal chow vs naïve mouse. The text has this:
FIG. 9A is a photomicrograph showing clusterin expression (white) in the corpus callosum of a naïve mouse and a mouse following 5-weeks of cuprizone diet followed by 1-week of normal chow to allow remyelination to begin. FIG. 9B is a bar graph showing quantification of clusterin coverage of the corpus callosum depicted in FIG. 9A. N=1 independent experiment, n=5 mice per group. Data analyzed using an unpaired t-test. ***p<0.001. Error bars represent standard error of the mean.
Based on preliminary data, it is anticipated that genetic and the therapeutic silencing of clusterin ameliorate the pathology observed in the 5×FAD mice. If a difference in the number of oligodendrocytes and myelination is undetected, the 5×FAD are tested with the cuprizone model of demyelination. Diet supplemented with cuprizone (5 weeks at 0.3% w/w) induces extensive demyelination of the medial corpus callosum (Doucette et al., 2010). However, demyelination induced in this manner is reversible, as remyelination occurs following the removal of the drug. […] Sections of the medial corpus callosum (midline region above the for mix and between the lateral ventricles) are stained as proposed herein above to quantify OPCs and oligodendrocytes at the end of cuprizone treatment as well as 0.5, 1, 1.5, and 2 weeks following the removal of cuprizone, as described (see Fernandez-Castaneda et al., 2020).

The test system of data set [2] is clusterin expression in OPCs. As to the kind of experiment: Clusterin expression in treated primary OPCs by qPCR. The class given is cell-based, mouse. To be noted: for clusterin expression in OPCs by qPCR (FIG. 7): 10 ng/ml TNFα 3 h, 10 μM H2O2 3 h, 3 μM Aβ 2 h, apoptotic cells 1:1 6 h, 100 μg/ml myelin debris 4 h; for clusterin expression in OPCs by qPCR (FIG. 12): 4-hour in vitro treatment: 3 μM Aβ, 100 μg/ml myelin, 10 ng/ml TNFα or IFNγ, 10 μM H2O2; for effect of phagocytosis block on clusterin upregulation by myelin debris or apoptotic cells in OPCs: Cytochalasin D 1 μM with 100 μg/ml myelin debris. The protocol:
FIGS. 7A-7F: Macromolecules and protein aggregates cause OPCs to upregulate clusterin. OPCs treated with 10 ng/ml TNFα for 3 hours (FIG. 7A), 10 μM H2O2 for 3 hours (FIG. 7B), 3 μM […] for 2 hours (FIG. 7C), a 1:1 ratio of apoptotic cells for 6 hours (FIG. 7D), 100 μg/ml myelin debris for 4 hours (FIG. 7E), or 100 μg/ml myelin debris and 1 μM Cytochalasin D for 4 hours (FIG. 7F). Clusterin transcript quantity was measured using qPCR. N=1-2 independent experiments. n=4-8 samples/condition. All data was analyzed using a repeated measures t-test. ns: not significant; CytoD: Cytochalasin D. *p<0.05, **p<0.01.
FIGS. 12A-12I: Phagocytosis of extracellular debris drives clusterin expression in OPCs. FIG. 12A. Representative images of OPCs (PDGFRα in green, Olig2 in red) surrounding Aβ plaques (n=4; Scale bar=20 μm). FIG. 12B. Representative orthogonal view of CypHer-labeled Aβ (white) inside an OPC (PDGFRα in green. Olig2 in red) following injection of Aβ (n=6; Scale bar=10 μm). Representative images (FIG. 12C) and quantification (FIG. 12D) of clusterin expression (red) in the ipsilateral (CypHer-Aβ injected: green) and contralateral (FITC injected; green) hemispheres following injection (n=6 mice: Scale bar=100 μm) FIG. 12E. qPCR analysis of clusterin expression in OPCs following a 4-hour in vitro treatment with 3 μM Aβ and the phagocytosis blocker CytoD (1 μM) or vehicle control (n=24). f, Quantification of clusterin protein in OPCs following 72-hour treatment with 3 μM Aβ or vehicle control (n=10). qPCR analysis of clusterin expression in OPCs following a 4-hour in vitro treatment with 100 μg/ml myelin (FIG. 12G), cytokines (10 ng/ml TNFα or 10 ng/ml IFNγ; FIG. 12H) or 10 μM H2O2 (FIG. 12I) and CytoD (1 μM) or vehicle control (n=4-19).
Oligomeric […] Drives Expression of Clusterin in OPCs Given the impact of clusterin on OPCs differentiation in vitro, and the evidence supporting that myelin is impacted in AD (Roher et al., 2002; Desai et al., 2009; Desai et al., 2010; Zhan et al., 2014), we wanted to understand what factors initiate expression of clusterin in OPCs. We treated primary OPCs with TNFa, H2O2, oligomeric Aβ, myelin debris, and apoptotic cells and monitored expression of clusterin by qPCR. These treatments were selected because of their association with AD pathology (Sengupta et al., 2016; Ahmad et al., 2017; Chang et al., 2017). […] In order to test if phagocytosis was required to mediate the upregulation of clusterin, the same experiment was repeated in the presence of Cytochalasin D to block actin polymerization and prevent engulfment (Axline & Reaven, 1974; Soldati & Schliwa, 2006).
We next investigated whether Aβ treatment increases clusterin expression in OPCs. […] We noted that increase in clusterin expression was not specific to the phagocytic clearance of Aβ oligomers, as we also observed it when OPCs engulfed cellular debris.

The subject of data set [3] is OPCs. As to the kind of experiment: OPC differentiation into oligodendrocytes, myelin marker expression by qPCR. The class given is cell-based, mouse. Particulars: differentiating conditions, 3 days. The method, then: FIGS. 13A-13G: Exogenous clusterin inhibits OPC differentiation. Expression of Mbp (FIG. 13A), Plp1 (FIG. 13B), Cnp (FIG. 13C), and Myrf (FIG. 13D), measured by qPCR in OPCs or OLGs treated with vehicle or 8 μg/ml of clusterin for 72 hours (n=7). Representative images (FIG. 13E) and quantification (FIG. 13F) of MBP expression in cells treated with or without 8 μg/ml of clusterin for 72 hours (n=5: Scale bar=50 μm). FIG. 13G. Quantification of OPCs viability following a 72 hours incubation with or without 8 μg/ml clusterin (n=11).
(§1) FIGS. 14A-14D: Clusterin inhibits differentiation by blocking IL-9 production. FIG. 14A. Quantification of cytokines present in the supernatant from OPCs treated with 8 μg/mL clusterin or vehicle control (n=6). Expression of Mbp (FIG. 14B), Plp1 (FIG. 14C), and Myrf (FIG. 14D), measured by qPCR in OPCs cultured in proliferation media (OPC Vehicle), differentiation media supplemented with vehicle (OLG Vehicle), or 8 μg/ml of is clusterin (OLG CLU), or 100 ng/ml IL-9 (OLG IL-9), or 8 μg/ml of clusterin and 100 ng/ml IL-9 (OLG CLU+IL-9) for 72 hours (n=11).
OPCs were prepared from neurospheres as previously described (Franco et al., 2015) and subsequently switched into differentiating conditions in the presence of recombinant clusterin (8 μg/ml) or vehicle (PBS) for 3 days. […]
For orientation: Real-time PCR tracks product formation cycle by cycle.

For another data set, the system named is clusterin. Particulars: patients with prostate cancer, Phase 3 clinical trial; cited from earlier work.
A further data set relates to OPCs (OLIG2+/PDGFRα+). Nature of the data set: Tamoxifen-induced YFP labelling of OPCs in PDGFRα-CreER; R26-EYFP reporter mice. Particulars: 2 tamoxifen injections 3 days apart, counted ten days after the first injection, adult mice. The class given is in vivo, mouse.
A further data set relates to APP/PS1 model of AD. Particulars: cited from earlier work.
Data set [4] concerns OPCs. As to the kind of experiment: OPC viability, CCK8 assay. The class given is cell-based, mouse. Particulars: clusterin 8 μg/ml, 72 hours. The method, then:
(§2) FIGS. 6A-6D: Clusterin inhibits OPC differentiation. FIG. 6A is a series of bar graphs showing expression of Mbp, Pip1, Cnp, and Myrf, measured by qPCR in cells cultured in proliferation media (OPC_Veh), differentiation media (OLG_Veh), or differentiation media supplemented with 8 μg/ml of clusterin (OLG_Clu). Data was analyzed using a mixed-effects analysis followed by a Tukey's multiple comparisons test. N=3 individual experiments, n=7 samples per group. FIG. 6B is a series of representative fluorescence micrograph images of cells cultured in differentiation media (Vehicle) or differentiation media supplemented with 8 μg/ml of clusterin (Clusterin). […] FIG. 6C is a bar graph of the quantification of the differentiation efficiency of cells depicted in FIG. 6B. […] Data was is analyzed using a repeated measures t-test. […]
(§3) FIGS. 13A-13G: Exogenous clusterin inhibits OPC differentiation. Expression of Mbp (FIG. 13A), Plp1 (FIG. 13B), Cnp (FIG. 13C), and Myrf (FIG. 13D), measured by qPCR in OPCs or OLGs treated with vehicle or 8 μg/ml of clusterin for 72 hours (n=7). Representative images (FIG. 13E) and quantification (FIG. 13F) of MBP expression in cells treated with or without 8 μg/ml of clusterin for 72 hours (n=5: Scale bar=50 μm). […] Quantification of OPCs viability following a 72 hours incubation with or without 8 μg/ml clusterin (n=11). […]
(Tetrazolium dyes change colour on reduction, which living cells bring about.)

In data set [5] the test system is OPCs. Nature of the data set: OPC differentiation, MBP positive oligolineage cells by immunofluorescence. The class given is cell-based, mouse. To be noted: clusterin 8 μg/ml, 72 hours, differentiation media. The protocol:
as §2, §3

A further data set deals with IL-9 secretion by OPCs. Nature of the data set: Luminex Assay on the supernatant of OPCs (cytokine and growth factor secretion). The class given is cell-based, mouse. Particulars: clusterin 8 μg/mL vs vehicle. The protocol: as §1
We next investigated what factors might be mediating clusterin's inhibition of OPC differentiation.
To identify whether clusterin can modify the composition of the OPC secretome, an unbiased multiplex analysis on the conditioned media of OPCs treated with vehicle or clusterin for 1-3 days was performed. […] IL-9 is a growth factor for T-cell subsets 64, and IL-9 receptor is expressed by OPCs in vivo. However, production and secretion of IL-9 by OPCs has not been previously reported.

Experimental for OPCs (OLIG2+/PDGFRα+): FIG. 1A is a representative image of YFP labeled OPCs (PDGFRα+Olig2+) cells following 2 tamoxifen injections. […] FIG. 1B is a graph of percent of OPCs expressing YFP following 0, 1, 2, or 3 tamoxifen injections. Each injection was given 3 days apart. n=2-3 mice/group.
To investigate the optimal dose of tamoxifen required for the reporter expression, we treated adult mice (6 weeks old) with 1, 2, or 3 tamoxifen injections (each injection was administered 3 days apart) and counted the number of YFP positive OPCs (OLIG2+/PDGFRα+) ten days after the first injection (see FIG. 1B).

With `O=C(NN=C1CCCCC1)C(=O)NN=C1CCCCC1` [Cuprizone], in data set [1], the “clusterin expression in the corpus callosum” value is recorded as “upregulated”.

Take `OO` [H2O2]: in [2], the “clusterin expression in OPCs by qPCR (FIG. 7)” value was “did not influence clusterin expression” and the “clusterin expression in OPCs by qPCR (FIG. 12)” value (“clusterin expression … (FIG. 12)” below) was “failed to induce changes in clusterin expression”. For `C=C1[C@@H](C)[C@H]2[C@H](Cc3ccccc3)NC(=O)[C@]23[C@H](OC(C)=O)/C=C/[C@@](C)(O)C(=O)[C@@H](C)C/C=C/[C@H]3[C@@H]1O` [Cytochalasin D], in [2] (CytoD 1 μM with 3 μM Aβ, 4 hours), the “effect of phagocytosis block on Aβ-induced clusterin upregulation in OPCs” value was “prevented Aβ from increasing clusterin production in OPCs”. The “effect of phagocytosis block on clusterin upregulation by myelin debris or apoptotic cells in OPCs” value was “internalization of the cargo is necessary to mediate the upregulation of clusterin” in data set [2] (4 hours) and “abrogated” in data set [2] (4 hours, listed as CytoD).

For TNFα, in data set [2], the “clusterin expression in OPCs by qPCR (FIG. 7)” value is listed as “did not influence clusterin expression” and the “clusterin expression … (FIG. 12)” value is given as “failed to induce changes in clusterin expression”. For the molecule “IL-9: interleukin 9 cytokine added exogenously (100 ng/ml) to differentiating OPCs”, the “Expression of Mbp, Plp, and Myrf by qPCR in clusterin-treated OPCs supplemented with IL-9” value with OPCs [3] (IL-9 100 ng/ml plus clusterin 8 μg/ml) is “prevented clusterin inhibition; also recorded: restored expression of these mature oligodendrocyte genes to a level similar as the untreated control”. Take “Custirsen: ASO targeting clusterin in Phase 3 clinical trial; OGX-011 is 5-CAGCAGCAGAGTCTTCATCAT-3′ (SEQ ID NO: 11) (listed as DNA, chemistry not given here; listed as Homo sapiens)”: the “levels of clusterin in patients” value in the data set with clusterin is “safely and effectively reduce levels of clusterin”. Turning to `CC/C(=C(\c1ccccc1)c1ccc(OCCN(C)C)cc1)c1ccccc1` [tamoxifen], the “percent of OPCs expressing YFP” value with OPCs (OLIG2+/PDGFRα+) came to 95%. Take `CN1CCC[C@@H]1CCO[C@](C)(c1ccccc1)c1ccc(Cl)cc1` [Clemastine]: the “myelin integrity and memory performance” value in the data set on APP/PS1 model of AD is “improved both myelin integrity and memory performance”.

“clusterin: recombinant clusterin, a secreted chaperone protein, containing an HIS-tag, added exogenously to OPCs”: the OPC viability result in the data set on OPCs [4] was “did not impact OPC viability; also recorded: not due to OPC death”. Moreover, in the data set on OPCs [5], the “percentage of MBP positive oligolineage cells (immunofluorescence)” value is “decrease; also recorded: fewer MBP-positive oligodendrocytes”. Besides, the “secretion of growth factors and cytokines by OPCs” value in the data set with IL-9 secretion by OPCs is “altered secretion of multiple proteins”. For the same molecule, in the data set on IL-9 secretion by OPCs (1-3 days), the “IL-9 secretion by OPCs” value was “marked reduction; also recorded: blocked IL-9 release from OPCs”. Also, the “Expression of myelin markers (Mbp, Plp, Cnp, and Myrf) as determined by qPCR” value with OPCs [3] (recombinant clusterin 8 μg/ml vs vehicle (PBS)) was “decreased; also recorded: striking decrease; also recorded: blocks OPC differentiation”.

B1: IFNγ: cytokine upregulated in Alzheimer's disease, 10 ng/ml (protein, UniProt P01579 24-161, looked up)
Interferon gamma: QDPYVKEAENLKKYFNAGHSDVADNGTLFLGILKNWKEESDRKIMQSQIVSFYFKLFKNFKDDQSIQKSVETIKEDMNVKFFNSNKKKRDDFEKLTNYSVTDLNVQRKAIHELIQVMAELSPAAKTGKRKRSQMLFRG
As for B1, the “clusterin expression … (FIG. 12)” value in [2] was “failed to induce changes in clusterin expression”.
